In PMC5341070, “Small molecule inhibitors block Gas6-inducible TAM activation and tumorigenicity” (Scientific Reports, 2017) one finds remaining binding and percent of control binding data, which are given here for 2 compounds.

Holding throughout (assay): biochemical
One test addresses ACVR1B (Homo sapiens, UniProt P36896). Also noted: KINOMEscan (DiscoverX) competition binding screen of 97 human kinases, percent of control at 10 uM. As for the experimental part:
(§1) The KINOMEscan profiling of the inhibitors were performed as per directions by the manufacturer (DiscoverX) against a panel of human protein kinases.

Another test concerns the target AKT1 (Homo sapiens, UniProt P31749). Also noted: KINOMEscan (DiscoverX) competition binding screen of 97 human kinases, percent of control at 10 uM. The method, then: as §1
The next test has as its target AKT2 (Homo sapiens, UniProt P31751). Also noted: KINOMEscan (DiscoverX) competition binding screen of 97 human kinases, percent of control at 10 uM. As for the experimental part:
as §1

The target in the next test is ALK (Homo sapiens, UniProt Q9UM73). More on the design: KINOMEscan (DiscoverX) competition binding screen of 97 human kinases, percent of control at 10 uM. As for the experimental part: as §1
The target of the next test is BRAF (Homo sapiens, UniProt P15056). Also noted: KINOMEscan (DiscoverX) competition binding screen of 97 human kinases, percent of control at 10 uM. The method, then:
as §1

A further test addresses T1, CDK11 (Homo sapiens, UniProt Q9BWU1).
T1 construct: gene CDK19
Also noted: KINOMEscan (DiscoverX) competition binding screen of 97 human kinases, percent of control at 10 uM. The method, then: as §1

Another test concerns the target EGFR(L858R) (Homo sapiens, UniProt P00533, L858R). More on the design: KINOMEscan (DiscoverX) competition binding screen of 97 human kinases, percent of control at 10 uM. The method, then:
as §1

A further test has as its target T2, IKK-alpha (Homo sapiens, UniProt O15111).
T2 construct: gene CHUK
Also noted: KINOMEscan (DiscoverX) competition binding screen of 97 human kinases, percent of control at 10 uM. The method, then: as §1

The target in the next test is T3, IKK-beta (Homo sapiens, UniProt O14920).
T3 construct: gene IKBKB
More on the design: KINOMEscan (DiscoverX) competition binding screen of 97 human kinases, percent of control at 10 uM. The method, then:
as §1

For another test, the target named is T4, JNK2 (Homo sapiens, UniProt P45984).
T4 construct: gene MAPK9
Also noted: KINOMEscan (DiscoverX) competition binding screen of 97 human kinases, percent of control at 10 uM. The method, then:
as §1

In a further test the target is KIT(D816V) (Homo sapiens, UniProt P10721, D816V). More on the design: KINOMEscan (DiscoverX) competition binding screen of 97 human kinases, percent of control at 10 uM. The method, then:
as §1

Another test has as its target MET (Homo sapiens, UniProt P08581). More on the design: KINOMEscan (DiscoverX) competition binding screen of 97 human kinases, percent of control at 10 uM. As for the experimental part: as §1
In another test the target is MKNK1 (Homo sapiens, UniProt Q9BUB5). More on the design: KINOMEscan (DiscoverX) competition binding screen of 97 human kinases, percent of control at 10 uM. The method, then: as §1
The target in the next test is PAK2 (Homo sapiens, UniProt Q13177). More on the design: KINOMEscan (DiscoverX) competition binding screen of 97 human kinases, percent of control at 10 uM. As for the experimental part:
as §1

A further test addresses PAK4 (Homo sapiens, UniProt O96013). More on the design: KINOMEscan (DiscoverX) competition binding screen of 97 human kinases, percent of control at 10 uM. As for the experimental part:
as §1

Another test concerns the target T5, PCTK1 (Homo sapiens, UniProt Q00536).
T5 construct: gene CDK16
More on the design: KINOMEscan (DiscoverX) competition binding screen of 97 human kinases, percent of control at 10 uM. As for the experimental part: as §1

For the next test, the target named is PIM1 (Homo sapiens, UniProt P11309). More on the design: KINOMEscan (DiscoverX) competition binding screen of 97 human kinases, percent of control at 10 uM. The method, then: as §1
Another test deals with T6, PKAC-alpha (Homo sapiens, UniProt P17612).
T6 construct: gene PRKACA
More on the design: KINOMEscan (DiscoverX) competition binding screen of 97 human kinases, percent of control at 10 uM. The method, then:
as §1

Another test addresses PLK1 (Homo sapiens, UniProt P53350). More on the design: KINOMEscan (DiscoverX) competition binding screen of 97 human kinases, percent of control at 10 uM. As for the experimental part:
as §1

The next test deals with T7, YANK3 (Homo sapiens, UniProt Q86UX6).
T7 construct: gene STK32C
Also noted: KINOMEscan (DiscoverX) competition binding screen of 97 human kinases, percent of control at 10 uM. As for the experimental part:
as §1

Another test has as its target ZAP70 (Homo sapiens, UniProt P43403). More on the design: KINOMEscan (DiscoverX) competition binding screen of 97 human kinases, percent of control at 10 uM. As for the experimental part: as §1
The next test addresses VEGFR2 (Homo sapiens, UniProt P35968). Also noted: gene KDR; KINOMEscan (DiscoverX) competition binding screen of 97 human kinases, percent of control at 10 uM. As for the experimental part:
as §1

A further test concerns the target TIE2 (Homo sapiens, UniProt Q02763). Also noted: gene TEK; KINOMEscan (DiscoverX) competition binding screen of 97 human kinases, percent of control at 10 uM. The method, then:
as §1

Where [1] appears, read: binding competition, % of control, read-out: RU-301 %Ctrl @ 10000nM.
[2] abbreviates: read-out: R428 %Ctrl @ 10000nM, binding competition.

T4 sequence (P45984 whole entry): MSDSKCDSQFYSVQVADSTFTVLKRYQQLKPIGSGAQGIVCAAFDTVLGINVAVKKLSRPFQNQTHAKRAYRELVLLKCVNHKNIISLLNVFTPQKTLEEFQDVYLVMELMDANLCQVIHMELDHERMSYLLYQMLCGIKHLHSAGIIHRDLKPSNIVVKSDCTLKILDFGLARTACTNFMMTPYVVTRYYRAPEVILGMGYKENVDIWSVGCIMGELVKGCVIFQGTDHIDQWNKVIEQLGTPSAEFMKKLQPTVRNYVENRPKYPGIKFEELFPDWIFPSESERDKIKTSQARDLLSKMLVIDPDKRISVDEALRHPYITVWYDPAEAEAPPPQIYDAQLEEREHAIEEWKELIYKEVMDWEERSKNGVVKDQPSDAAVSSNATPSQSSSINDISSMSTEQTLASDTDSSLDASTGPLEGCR
PAK4, sequence (O96013 whole entry): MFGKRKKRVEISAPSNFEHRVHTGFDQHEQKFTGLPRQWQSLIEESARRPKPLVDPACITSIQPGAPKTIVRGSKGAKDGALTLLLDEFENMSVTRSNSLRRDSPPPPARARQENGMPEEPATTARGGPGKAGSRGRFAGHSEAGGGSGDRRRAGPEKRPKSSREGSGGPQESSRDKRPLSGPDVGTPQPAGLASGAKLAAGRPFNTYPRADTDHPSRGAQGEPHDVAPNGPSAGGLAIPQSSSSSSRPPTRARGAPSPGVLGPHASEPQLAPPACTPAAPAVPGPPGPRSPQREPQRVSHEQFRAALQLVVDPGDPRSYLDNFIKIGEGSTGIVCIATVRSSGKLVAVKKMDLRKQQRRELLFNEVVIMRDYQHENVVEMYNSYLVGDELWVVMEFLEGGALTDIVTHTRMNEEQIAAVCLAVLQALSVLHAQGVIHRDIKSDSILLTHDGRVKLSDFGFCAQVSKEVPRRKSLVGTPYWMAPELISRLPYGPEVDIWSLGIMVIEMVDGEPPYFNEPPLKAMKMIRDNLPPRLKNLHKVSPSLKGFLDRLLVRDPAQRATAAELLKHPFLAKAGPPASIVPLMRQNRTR
T7 sequence (Q86UX6 whole entry): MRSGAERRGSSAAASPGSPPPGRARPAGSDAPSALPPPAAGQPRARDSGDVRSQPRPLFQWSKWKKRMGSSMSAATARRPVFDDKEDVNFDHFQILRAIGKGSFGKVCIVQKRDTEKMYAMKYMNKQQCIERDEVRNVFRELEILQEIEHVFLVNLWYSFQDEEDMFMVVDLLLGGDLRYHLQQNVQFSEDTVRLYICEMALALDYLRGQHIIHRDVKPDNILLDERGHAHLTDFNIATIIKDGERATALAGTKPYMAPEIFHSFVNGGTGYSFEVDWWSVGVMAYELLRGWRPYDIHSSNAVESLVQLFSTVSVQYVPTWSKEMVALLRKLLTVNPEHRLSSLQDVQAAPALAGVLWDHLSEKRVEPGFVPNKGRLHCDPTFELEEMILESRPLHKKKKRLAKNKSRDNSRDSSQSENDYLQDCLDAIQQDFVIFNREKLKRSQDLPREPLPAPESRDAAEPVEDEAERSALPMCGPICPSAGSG
T5 sequence (Q00536 whole entry): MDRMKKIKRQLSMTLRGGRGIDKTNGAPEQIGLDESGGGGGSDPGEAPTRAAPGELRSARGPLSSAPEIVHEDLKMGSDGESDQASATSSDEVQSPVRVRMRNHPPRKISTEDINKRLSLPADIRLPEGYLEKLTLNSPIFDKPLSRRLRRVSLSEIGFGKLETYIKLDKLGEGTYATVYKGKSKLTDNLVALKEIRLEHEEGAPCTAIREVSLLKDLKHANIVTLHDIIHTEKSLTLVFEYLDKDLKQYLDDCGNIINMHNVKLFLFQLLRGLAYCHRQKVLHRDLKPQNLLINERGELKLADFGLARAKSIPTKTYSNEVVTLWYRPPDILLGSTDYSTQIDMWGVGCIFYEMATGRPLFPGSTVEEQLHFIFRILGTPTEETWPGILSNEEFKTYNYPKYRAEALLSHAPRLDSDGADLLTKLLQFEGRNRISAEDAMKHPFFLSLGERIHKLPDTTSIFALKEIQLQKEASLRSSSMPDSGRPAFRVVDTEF
PIM1, sequence (P11309 whole entry): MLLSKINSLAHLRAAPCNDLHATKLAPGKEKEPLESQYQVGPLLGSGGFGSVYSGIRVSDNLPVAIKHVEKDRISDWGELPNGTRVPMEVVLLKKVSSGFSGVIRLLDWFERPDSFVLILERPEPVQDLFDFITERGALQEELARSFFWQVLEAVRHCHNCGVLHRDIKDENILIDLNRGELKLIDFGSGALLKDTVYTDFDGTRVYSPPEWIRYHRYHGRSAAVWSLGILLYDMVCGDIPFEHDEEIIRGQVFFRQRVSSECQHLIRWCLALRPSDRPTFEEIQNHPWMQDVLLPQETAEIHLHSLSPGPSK
KIT(D816V), sequence (P10721 whole entry D816V): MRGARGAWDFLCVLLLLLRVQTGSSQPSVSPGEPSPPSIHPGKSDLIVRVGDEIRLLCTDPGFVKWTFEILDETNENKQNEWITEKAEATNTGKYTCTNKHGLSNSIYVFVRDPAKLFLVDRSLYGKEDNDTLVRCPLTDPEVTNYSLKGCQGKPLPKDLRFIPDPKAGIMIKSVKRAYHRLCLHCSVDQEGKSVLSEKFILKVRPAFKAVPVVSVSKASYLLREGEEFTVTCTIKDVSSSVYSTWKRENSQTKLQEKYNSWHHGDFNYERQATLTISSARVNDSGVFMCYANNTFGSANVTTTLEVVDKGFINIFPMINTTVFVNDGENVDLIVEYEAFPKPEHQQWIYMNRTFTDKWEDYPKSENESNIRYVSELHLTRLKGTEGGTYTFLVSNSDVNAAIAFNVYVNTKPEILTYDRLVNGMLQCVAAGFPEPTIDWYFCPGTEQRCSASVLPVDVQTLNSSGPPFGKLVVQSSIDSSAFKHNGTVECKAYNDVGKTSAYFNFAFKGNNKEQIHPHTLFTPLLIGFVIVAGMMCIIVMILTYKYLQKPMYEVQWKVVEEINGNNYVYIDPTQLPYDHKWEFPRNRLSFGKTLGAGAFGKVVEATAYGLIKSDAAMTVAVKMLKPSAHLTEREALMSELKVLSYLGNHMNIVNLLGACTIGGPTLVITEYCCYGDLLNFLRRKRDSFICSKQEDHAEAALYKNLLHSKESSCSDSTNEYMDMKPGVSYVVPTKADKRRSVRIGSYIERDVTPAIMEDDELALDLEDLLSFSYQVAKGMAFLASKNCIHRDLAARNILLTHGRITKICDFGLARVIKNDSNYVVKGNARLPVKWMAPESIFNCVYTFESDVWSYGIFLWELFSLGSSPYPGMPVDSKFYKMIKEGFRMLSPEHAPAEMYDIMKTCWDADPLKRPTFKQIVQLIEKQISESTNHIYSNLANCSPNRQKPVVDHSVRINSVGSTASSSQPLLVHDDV
T3 sequence (O14920 whole entry): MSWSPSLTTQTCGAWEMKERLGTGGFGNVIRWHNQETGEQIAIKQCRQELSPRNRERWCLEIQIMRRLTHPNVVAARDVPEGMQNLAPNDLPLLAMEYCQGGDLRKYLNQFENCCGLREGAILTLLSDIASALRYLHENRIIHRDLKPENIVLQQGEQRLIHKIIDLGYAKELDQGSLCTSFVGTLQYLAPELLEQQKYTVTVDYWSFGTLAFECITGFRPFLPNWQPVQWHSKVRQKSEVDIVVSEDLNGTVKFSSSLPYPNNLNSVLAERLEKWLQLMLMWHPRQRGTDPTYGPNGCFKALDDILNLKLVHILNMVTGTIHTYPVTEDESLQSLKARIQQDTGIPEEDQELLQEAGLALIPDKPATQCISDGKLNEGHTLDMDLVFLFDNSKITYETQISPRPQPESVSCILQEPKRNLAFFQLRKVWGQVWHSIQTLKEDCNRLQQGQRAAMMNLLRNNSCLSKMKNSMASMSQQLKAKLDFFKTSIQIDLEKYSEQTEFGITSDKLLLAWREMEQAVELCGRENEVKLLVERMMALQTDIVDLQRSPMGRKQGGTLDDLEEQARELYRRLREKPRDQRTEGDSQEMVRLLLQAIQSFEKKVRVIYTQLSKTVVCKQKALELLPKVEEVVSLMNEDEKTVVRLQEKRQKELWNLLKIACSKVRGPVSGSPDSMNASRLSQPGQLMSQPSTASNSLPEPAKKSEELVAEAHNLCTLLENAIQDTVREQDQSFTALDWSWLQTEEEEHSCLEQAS
MKNK1, sequence (Q9BUB5 whole entry): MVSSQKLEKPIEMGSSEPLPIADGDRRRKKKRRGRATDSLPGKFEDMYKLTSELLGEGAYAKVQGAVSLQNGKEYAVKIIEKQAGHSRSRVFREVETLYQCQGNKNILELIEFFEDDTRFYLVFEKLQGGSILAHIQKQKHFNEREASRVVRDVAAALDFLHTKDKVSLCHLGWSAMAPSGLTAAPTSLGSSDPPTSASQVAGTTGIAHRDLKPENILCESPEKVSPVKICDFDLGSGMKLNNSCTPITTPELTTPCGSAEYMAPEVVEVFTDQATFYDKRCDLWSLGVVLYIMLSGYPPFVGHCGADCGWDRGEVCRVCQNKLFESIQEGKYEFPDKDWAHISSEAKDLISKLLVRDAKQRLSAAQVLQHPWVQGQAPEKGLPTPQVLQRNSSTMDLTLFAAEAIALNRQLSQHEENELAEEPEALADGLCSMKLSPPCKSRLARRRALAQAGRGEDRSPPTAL
AKT1, sequence (P31749 whole entry): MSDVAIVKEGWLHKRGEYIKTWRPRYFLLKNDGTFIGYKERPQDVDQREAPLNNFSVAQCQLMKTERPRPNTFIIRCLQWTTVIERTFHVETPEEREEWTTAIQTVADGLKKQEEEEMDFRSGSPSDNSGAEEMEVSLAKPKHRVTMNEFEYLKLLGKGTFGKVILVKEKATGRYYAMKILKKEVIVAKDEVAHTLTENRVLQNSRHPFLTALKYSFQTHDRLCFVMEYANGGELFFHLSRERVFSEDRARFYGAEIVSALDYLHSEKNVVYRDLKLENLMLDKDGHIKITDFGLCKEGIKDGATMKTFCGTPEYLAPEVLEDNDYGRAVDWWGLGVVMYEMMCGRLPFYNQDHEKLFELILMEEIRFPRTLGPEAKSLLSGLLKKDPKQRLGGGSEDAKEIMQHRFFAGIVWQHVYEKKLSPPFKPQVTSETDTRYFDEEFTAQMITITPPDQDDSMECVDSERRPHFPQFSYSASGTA

With `Cc1cc(CSc2ccccc2C(=O)NCCNc2ccc(C(F)(F)F)cc2[N+](=O)[O-])on1` [RU-301], the remaining binding at 10 µM on ACVR1B (setting [1]) stood at 96%; at AKT1 (setting [1]), 88%; on AKT2 (setting [1]), 100%; at ALK (setting [1]), 100%; at BRAF (setting [1]), 99%; on CDK11 (setting [1]), 94%. Also, the remaining binding at 10 µM on EGFR(L858R) (setting [1]) was 94%; on IKK-alpha (setting [1]), 86%; on IKK-beta (setting [1]), 100%; on JNK2 (setting [1]), 97%; on KIT(D816V) (setting [1]), 100%; on MET (setting [1]) it was 88%. Also, the remaining binding at 10 µM at MKNK1 (setting [1]) came to 78%; on PAK2 (setting [1]), 96%; at PAK4 (setting [1]), 93%; at PCTK1 (setting [1]), 100%; at PIM1 (setting [1]) it was 82%; on PKAC-alpha (setting [1]), 90%. The remaining binding at 10 µM came to 95% at PLK1 (setting [1]); 100% at YANK3 (setting [1]); 76% at ZAP70 (setting [1]); 99% on VEGFR2 (setting [1]); 100% on TIE2 (setting [1]).
`Nc1nc(Nc2ccc3c(c2)CC[C@@H](N2CCCC2)CC3)nn1-c1cc2c(nn1)-c1ccccc1CCC2` [R428]: the percent of control binding at 10 µM at ACVR1B (setting [2]) worked out at 26%; on AKT1 (setting [2]), 100%; on AKT2 (setting [2]), 100%; at ALK (setting [2]), 60%; on BRAF (setting [2]), 64%; on CDK11 (setting [2]), 98%. Also, the percent of control binding at 10 µM on EGFR(L858R) (setting [2]) is 10%; at IKK-alpha (setting [2]), 0.5%; at IKK-beta (setting [2]) it was 4.8%; at JNK2 (setting [2]), 96%; on KIT(D816V) (setting [2]), 0.15%; at MET (setting [2]) it was 9.4%. For the same compound, the percent of control binding at 10 µM on MKNK1 (setting [2]) was 19%; at PAK2 (setting [2]), 69%; at PAK4 (setting [2]) it was 85%; on PCTK1 (setting [2]), 90%; on PIM1 (setting [2]), 67%; at PKAC-alpha (setting [2]), 48%. The percent of control binding at 10 µM on PLK1 (setting [2]) was found to be 2.9%; on YANK3 (setting [2]), 100%; at ZAP70 (setting [2]), 33%; on VEGFR2 (setting [2]) it was 1%; on TIE2 (setting [2]), 0.45%.
